Tests used:
[1] = system: VEGF-mediated retinal vascular damage; assay: VEGF-induced retinal vascular leakage in rabbits, fundus photography and fluorescein angiography; assay type: in vivo, Dutch Belted rabbits; design: Leakage, mean score / Hemorrhage/Microaneurism, mean score / Edema, mean score: scale not given here; details: for Edema, mean score / Hemorrhage/Microaneurism, mean score / Leakage, mean score / Edema, Difference (Doxy-Vehicle) / (Kenalog-Vehicle) / Hemorrhage/Microaneurism, Difference (Doxy-Vehicle) / (Kenalog-Vehicle) / Leakage, Difference (Doxy-Vehicle) / (Kenalog-Vehicle) / Edema, Difference (Kenalog-Doxy) / Hemorrhage/Microaneurism, Difference (Kenalog-Doxy) / Leakage, Difference (Kenalog-Doxy): 48 hours post-dosing; for Edema, mean score / Hemorrhage/Microaneurism, mean score / Leakage, mean score: 50 μl intravitreal before VEGF165; for Edema, Difference (Doxy-Vehicle) / (Kenalog-Vehicle) / Hemorrhage/Microaneurism, Difference (Doxy-Vehicle) / (Kenalog-Vehicle) / Leakage, Difference (Doxy-Vehicle) / (Kenalog-Vehicle): difference of mean scores to vehicle; for Edema, Difference (Kenalog-Doxy) / Hemorrhage/Microaneurism, Difference (Kenalog-Doxy) / Leakage, Difference (Kenalog-Doxy): difference of mean scores to Doxy
Procedure: Retinal vascular leakage was induced in rabbits by intravitreal injection of VEGF according to the procedures set forth in Edelman et al., Experimental Eye Research 80:249-258 (2005). The protective effect of doxycycline on VEGF-mediated retinal vascular damage was assessed. A total of 12 Dutch Belted rabbits (Covance) were anesthetized with isoflurane inhalation and topical 0.5% proparacaine hydrochloride and each eye studied (24 eyes total). Four animals received a 50 μl intravitreal injection of 0.025% bovine serum albumin (BSA) in sterile phosphate-buffered saline (PBS) (Dow Pharmaceutical Sciences) (vehicle, eight eyes total). Doxycycline was formulated from anhydrous doxycycline (Dow Pharmaceutical Sciences) and reconstituted as a saturated solution of doxycycline in 0.025% BSA in PBS assayed to be at a final doxycycline concentration of approximately 0.067 weight percent. Four animals received 50 μl of the doxycycline formulation in each eye (eight eyes total). Four animals received 50 μl of a 40 mg/mL solution of triamcinolone acetonide (Kenalog®, Bristol Myers-Squibb) in 0.025% BSA in PBS (positive control, eight eyes total). Each injection was followed by a 50 μl intravitreal injection of a 10 μg/mL solution of recombinant human VEGF165 (Vascular Endothelial Growth Factor 165 amino acid residue variant, R&D Systems) in 0.025% BSA in PBS. A 30-gauge ⅝-inch needle was used for the injections. VEGF was purchased from R&D Systems (Minneapolis, Minn.).
Prior to injections, eyes were prepared for injection with 1% tropicamide (2 drops), followed ten minutes later by phenylephrine hydrochloride 2.5% (2 drops). An ophthalmic Betadine solution was then used to moisten the eyes. […]. After five minutes, the Betadine was washed out of the eyes with sterile saline and proparacaine hydrochloride was delivered to each eye.
Animals were then anesthetized with an intravenous injection of a ketamine/xylazine cocktail (77 mg/mL ketamine, 23 mg/mL xylazine) at 0.1 mL/kg.
Vascular leakage, hemorrhage, and edema were assessed using fundus photography and fluorescein angiography (see Table 1). Rabbits were anesthetized with subcutaneous 100 mg/mL ketamine at 35 mg/kg and 100 mg/mL xylazine at 7 mg/kg, eyes were dilated with topical 1% tropicamide, and angiograms were obtained with a Topeon TRC-501X retinal camera coupled to a personal computer with IMAGEnet 2000 software (Topcon Medical Systems Inc., Paramus, N.J.). Intravenous sodium fluorescein injection (12 mg/kg) was performed 48 hours after intravitreal injection of VEGF. Late-phase angiography was performed 4-6 min after intravenous sodium fluorescein injection, […]

[2] = system: pre-IL-1β; assay: pre-IL-1β cleavage by ELISA in human choroidal cultures; assay type: cell-based; details: 0.001% to 5.0% doxycycline
[3] = system: diabetic retinopathy; assay: Oral doxycycline in patients suffering from diabetic retinopathy; assay type: in vivo, Humans; details: 50 mg orally twice a day for eight weeks
Procedure: (§1) Ten patients suffering from diabetic retinopathy are treated with oral doxycycline 50 mg orally twice a day for eight weeks. The patients are monitored for improvement of macular edema and vascular leakage by fluorescein angiography and scanning ocular fluorophotometry. Decreased vascular leakage in response to doxycycline administration is observed, which leads to a decrease in edema and improved visual acuity.

[4] = system: diabetic retinopathy; assay: Topical doxycycline in patients suffering from diabetic retinopathy; assay type: in vivo, Humans; details: between 0.025% and 0.1% daily for one month
Procedure: as §1, with “topical doxycycline. Two patients each are administered” for “oral”, “at” for “50 mg orally twice”, “concentration selected to be between 0.025% and 0.1% daily” for “day”, “one month.” for “eight weeks.”, “acuity in most or all of the patients treated.” for “acuity.”

[5] = most or all of the patients treated

| SMILES | Edema, mean score ([1]; Combined Eyes) | Hemorrhage/Microaneurism, mean score ([1]; Combined Eyes) | Leakage, mean score ([1]; Combined Eyes) | Edema, Difference (Doxy-Vehicle) / (Kenalog-Vehicle) ([1]; Combined Eyes) | Hemorrhage/Microaneurism, Difference (Doxy-Vehicle) / (Kenalog-Vehicle) ([1]; Combined Eyes) | Leakage, Difference (Doxy-Vehicle) / (Kenalog-Vehicle) ([1]; Combined Eyes) | Edema, mean score ([1]; Left Eye) | Hemorrhage/Microaneurism, mean score ([1]; Left Eye) | Leakage, mean score ([1]; Left Eye) | Edema, Difference (Doxy-Vehicle) / (Kenalog-Vehicle) ([1]; Left Eye) | Hemorrhage/Microaneurism, Difference (Doxy-Vehicle) / (Kenalog-Vehicle) ([1]; Left Eye) | Leakage, Difference (Doxy-Vehicle) / (Kenalog-Vehicle) ([1]; Left Eye) | Edema, mean score ([1]; Right Eye) | Hemorrhage/Microaneurism, mean score ([1]; Right Eye) | Leakage, mean score ([1]; Right Eye) | Edema, Difference (Doxy-Vehicle) / (Kenalog-Vehicle) ([1]; Right Eye) | Hemorrhage/Microaneurism, Difference (Doxy-Vehicle) / (Kenalog-Vehicle) ([1]; Right Eye) | Leakage, Difference (Doxy-Vehicle) / (Kenalog-Vehicle) ([1]; Right Eye) | Edema ([1]; combined eyes) [units] | Hemorrhage/microaneurism ([1]; combined eyes) [units] | other results |
| --- | --- | --- | --- | --- | --- | --- | --- | --- | --- | --- | --- | --- | --- | --- | --- | --- | --- | --- | --- | --- | --- |
| C[C@H]1c2cccc(O)c2C(O)=C2C(=O)[C@]3(O)C(O)=C(C(N)=O)C(=O)[C@@H](N(C)C)[C@@H]3[C@@H](O)[C@@H]21 [Doxy, doxycycline] | 2.00 | 1.63 | 2.06 | −0.69 | −0.94 | −0.75 | 3.25 | 2.25 | 3.13 | 0.50 | 0.00 | 0.38 | 1.75 | 2 | 1.75 | −0.25 | −0.25 | −0.50 | 2.0 | 1.63 | VEGF-mediated retinal vascular damage ([1]; as compared to the rabbits that received vehicle): reduced; Leakage ([1]; combined eyes): 2.06 units; Edema ([1]; left eye): 3.25 units; Hemorrhage/microaneurism ([1]; left eye): 2.25 units; Leakage ([1]; left eye): 3.13 units; Edema ([1]; right eye): 1.75 units; Hemorrhage/microaneurism ([1]; right eye): 2.0 units; Leakage ([1]; right eye): 1.75 units; pre-IL-1β cleavage [2]: correlate directly with increasing doxycycline concentrations; Edema [3]: decrease; visual acuity [3]: improved; vascular leakage ([3]; fluorescein angiography and scanning ocular fluorophotometry): Decreased; vascular leakage [4]: Decreased; Edema [4, 5]: decrease; visual acuity [4, 5]: improved |
| CC1(C)O[C@@H]2C[C@H]3[C@@H]4CCC5=CC(=O)C=C[C@]5(C)[C@@]4(F)[C@@H](O)C[C@]3(C)[C@]2(C(=O)CO)O1 [Kenalog, triamcinolone acetonide] | 1.13 | 1.00 | 0.25 | −1.56 | −1.56 | −2.56 | 1.25 | 1.13 | 0.50 | −1.50 | −1.13 | −2.25 | 1.13 | 0.75 | 0.25 | −0.88 | −1.50 | −2.00 | 1.13 | 1.00 | Edema, Difference (Kenalog-Doxy) ([1]; Combined Eyes): −0.88; Hemorrhage/Microaneurism, Difference (Kenalog-Doxy) ([1]; Combined Eyes): −0.63; Leakage, Difference (Kenalog-Doxy) ([1]; Combined Eyes): −1.81; Edema, Difference (Kenalog-Doxy) ([1]; Left Eye): −2.00; Hemorrhage/Microaneurism, Difference (Kenalog-Doxy) ([1]; Left Eye): −1.13; Leakage, Difference (Kenalog-Doxy) ([1]; Left Eye): −2.63; Edema, Difference (Kenalog-Doxy) ([1]; Right Eye): −0.63; Hemorrhage/Microaneurism, Difference (Kenalog-Doxy) ([1]; Right Eye): −1.25; Leakage, Difference (Kenalog-Doxy) ([1]; Right Eye): −1.50; Leakage ([1]; combined eyes): 0.25 units; Edema ([1]; left eye): 1.25 units; Hemorrhage/microaneurism ([1]; left eye): 1.13 units; Leakage ([1]; left eye): 0.50 units; Edema ([1]; right eye): 1.13 units; Hemorrhage/microaneurism ([1]; right eye): 0.75 units; Leakage ([1]; right eye): 0.25 units |

From patent US20090136514A1, “Tetracyclines for Treating Ocular Diseases and Disorders” (priority 2005, published 2009)
